# Assay results as given in US9302999B2, “Substituted triazoles as herbicides” (E. I. DU PONT DE NEMOURS AND COMPANY, priority 2012, dated 2016).
# Assays:
# Type in all cases: in vivo
# [1] = test system: smartweed (ladysthumb smartweed, Polygonum persicaria); assay: Test E pre-/postemergence: smartweed; conditions: Postemergence, scale 0 to 100
# Description: Seeds of plant species selected from corn (Zea mays), soybean (Glycine max), velvetleaf (Abutilon theophrasti), lambsquarters (Chenopodium album), poinsettia, wild (wild poinsettia, Euphorbia heterophylla), pigweed, palmer (palmer pigweed, Amaranthus palmeri), waterhemp (common waterhemp, Amaranthus rudis), smartweed (ladysthumb smartweed, Polygonum persicaria), surinam grass (Brachiaria decumbens), crabgrass, large (large crabgrass, Digitaria sanguinalis), crabgrass, Brazil (Brazilian crabgrass, Digitaria horizontalis), panicum, fall (fall panicum, Panicum dichotomiflorum), foxtail, giant (giant foxtail, Setaria faberii), foxtail, green (green foxtail, Setaria viridis), goosegrass (Eleusine indica), johnsongrass (Sorghum halepense), ragweed (common ragweed, Ambrosia elation), barnyardgrass (Echinochloa crus-galli), sandbur (southern sandbur, Cenchrus echinatus), arrowleaf sida (Sida rhombifolia), ryegrass, Italian (Italian ryegrass, Lolium multiflorum), dayflower, (VA) (Virginia dayflower, Commelina virginica), field bindweed (Convolvulus arvensis), cocklebur (common cocklebur, Xanthium strumarium), morningglory (Ipomoea coccinea), nightshade (eastern black nightshade, Solanum ptycanthum), kochia (Kochia scoparia), nutsedge, yellow (yellow nutsedge, Cyperus esculentus) and beggarticks (hairy beggarticks, Bidens pilosa) were planted into a silt loam soil and treated preemergence with test chemicals formulated in a non-phytotoxic solvent mixture which included a surfactant. At the same time, plants selected from these crop and weed species were planted in pots containing a growing medium comprising spaghnum peat moss, vermiculite, wetting agent and starter nutrients and treated with postemergence applications of some of the test chemicals formulated in the same manner. Plants ranged in height from 2 to 18 cm for postemergence treatments (1- to 4-leaf stage).
# (§1) Treated plants and controls were maintained in a greenhouse for 14 to 21 days, after which time all species were compared to controls and visually evaluated. Plant response ratings, summarized in Table E, are based on a scale of 0 to 100 where 0 is no effect and 100 is complete control. A dash (-) response means no test result.
# [2] = test system: Field Violet (VIOAR, Viola arvennsis); assay: Test H post-emergence, alone and in combination: Field Violet
# Description: (§2) Seeds of plant species selected from wheat (TRZAW, Triticum aestivum), barley (HORBW, Hordeum vulgare), Kochia (KCHSC, Kochia caoparia) blackgrass (ALOMY, Alopecurus myosuroides), canarygrass (PHAMI, Phalaris minor), Italian ryegrass (LOLMU, Lolium multiflorum) common lambsquarter (CHEAL, Chenopodium album), pigweed (AMARE, Amaranthus retroflexus), Common Chickweed (STEME, Stellaria media), Russian thistle (SASKR, Salsola iberica), Wild Buckwheat (POLCO, Polygonum convolvulus), Catchweed Bedstraw (GALAP, Galium aparine), Mustard (SINAR, Sinapisar arvensis), Henbit Deadnettle (LAMAM, Lamium amplexicaule), Wild Radish (RAPRA, Raphanus raphanistrum), Field Poppy (PAPRH, Papaver rhoeas), Field Violet (VIOAR, Viola arvennsis), Scentless Chamomile (MATIN Matricaria inodora) were planted into soil and treated post-emergence with test chemicals formulated in a non-phytotoxic solvent mixture. Plants were grown in a greenhouse using supplemental lighting to maintain a photoperiod of approximately 14 hours; daytime and nighttime temperatures were approximately 23°-29° and 16°-19° Celsius, respectively. Balanced fertilizer was applied through the watering system. Treated plants and controls were maintained in a greenhouse for 20 days, after which time all species were compared to controls and visually evaluated. Plant response ratings were calculated as the mean of three replicates (unless otherwise indicated), are summarized in Table G, and are based on a scale of 0 to 100 where 0 is no effect and 100 is complete control. A dash (-) response means no test result.
# [3] = test system: Field Poppy (PAPRH, Papaver rhoeas); assay: Test H post-emergence, alone and in combination: Field Poppy
# Description: as §2
# [4] = test system: wheat (TRZAW, Triticum aestivum); assay: Test H post-emergence, alone and in combination: wheat
# Description: as §2
# [5] = test system: Common Chickweed (STEME, Stellaria media); assay: Test H post-emergence, alone and in combination: Common Chickweed
# Description: as §2
# [6] = test system: Wild Radish (RAPRA, Raphanus raphanistrum); assay: Test H post-emergence, alone and in combination: Wild Radish
# Description: as §2
# [7] = test system: smartweed (ladysthumb smartweed, Polygonum persicaria); assay: Test F pre-/postemergence: smartweed
# Description: Seeds of plant species selected from corn (Zea mays), soybean (Glycine max), velvetleaf (Abutilon theophrasti), lambsquarters (Chenopodium album), poinsettia, wild (wild poinsettia, Euphorbia heterophylla), pigweed, palmer (palmer pigweed, Amaranthus palmeri), waterhemp (common waterhemp, Amaranthus rudis), surinam grass (Brachiaria decumbens), crabgrass, Brazil (Brazilian crabgrass, Digitaria horizontalis), panicum, fall (fall panicum Panicum dichotomiflorum), crabgrass, large (large crabgrass, Digitaria sanguinalis), foxtail, giant (giant foxtail, Setaria faberii), foxtail, green (green foxtail Setaria viridis), goosegrass (Eleusine indica), ragweed (common ragweed, Ambrosia elatior), barnyardgrass (Echinochloa crus-galli), sandbur (southern sandbur, Cenchrus echinatus), arrowleaf sida (Sida rhombifolia), ryegrass, Italian (Italian ryegrass, Lolium multiflorum), dayflower, VA (Virginia (VA) dayflower, Commelina virginica), field bindweed (Convolvulus arvensis), cocklebur (common cocklebur, Xanthium strumarium), morningglory (Ipomoea coccinea), nightshade (eastern black nightshade, Solanum ptycanthum), kochia (Kochia scoparia), nutsedge, yellow (yellow nutsedge, Cyperus esculentus), johnsongrass (Sorghum halepense), smartweed (ladysthumb smartweed, Polygonum persicaria), and beggarticks (hairy beggarticks, Bidens pilosa), were planted into a silt loam soil and treated preemergence with test chemicals formulated in a non-phytotoxic solvent mixture which included a surfactant. At the same time, plants selected from these crop and weed species and also pigweed (Amaranthus retroflexus), waterhemp_RES1 (ALS/Triazine resistant common waterhemp, Amaranthus rudis) and waterhemp_RES2 (ALS/HPPD resistant common waterhemp, Amaranthus rudis) were planted in pots containing a planting medium comprising spaghnum peat moss, vermiculite, wetting agent and starter nutrients treated with postemergence applications of some of the test chemicals formulated in the same manner. Plants ranged in height from 2 to 18 cm for postemergence treatments (1- to 4-leaf stage).
# as §1
smiles,measurement,setting,value
"Cc1nn(-c2ccc(C(F)(F)F)cc2)nc1Cc1ccnc(C(F)(F)F)c1 [Compound 47, 4-[[5-methyl-2-[4-(trifluoromethyl)phenyl]-2H-1,2,3-triazol-4-yl]methyl]-2-(trifluoromethyl)pyridine]",Plant response rating: Smartweed,[1]; 250 g ai/ha,85
same,Plant response rating: Smartweed,[1]; 16 g ai/ha,30
same,Plant response rating: Smartweed,[1]; 31 g ai/ha,40
same,Plant response rating: Smartweed,[1]; 62 g ai/ha,50
same,Plant response rating: Smartweed,[1]; 125 g ai/ha,80
"Cc1nn(-c2ccc(F)cc2)nc1Oc1ccnc(C(F)(F)F)c1 [Compound 129, 4-[[2-(4-fluorophenyl)-5-methyl-2H-1,2,3-triazol-4-yl]oxy]-2-(trifluoromethyl)pyridine]",VIOAR plant response,[2]; Rate 31,60
same,VIOAR plant response,[2]; Rate 62,75
same,VIOAR plant response,[2]; Rate 125,90
same,PAPRH plant response,[3]; Rate 31,85
same,PAPRH plant response,[3]; Rate 62,90
same,PAPRH plant response,[3]; Rate 125,90
same,TRZAW plant response,[4]; Rate 31,10
same,TRZAW plant response,[4]; Rate 62,15
same,TRZAW plant response,[4]; Rate 125,15
same,STEME plant response,[5]; Rate 31,50
same,STEME plant response,[5]; Rate 62,70
same,STEME plant response,[5]; Rate 125,80
same,RAPRA plant response,[6]; Rate 31,60
same,RAPRA plant response,[6]; Rate 62,85
same,RAPRA plant response,[6]; Rate 125,90
Cc1nn(-c2ccc(C(F)(F)F)c(F)c2)nc1Cc1ccnc(C(F)(F)F)c1 [Compound 162],"Plant response rating, Smartweed","[7]; Postemergence, 4 g ai/ha, scale 0 to 100",10
same,"Plant response rating, Smartweed","[7]; Postemergence, 8 g ai/ha, scale 0 to 100",10
same,"Plant response rating, Smartweed","[7]; Postemergence, 16 g ai/ha, scale 0 to 100",10
same,"Plant response rating, Smartweed","[7]; Postemergence, 31 g ai/ha, scale 0 to 100",15
same,"Plant response rating, Smartweed","[7]; Postemergence, 62 g ai/ha, scale 0 to 100",15
same,"Plant response rating, Smartweed","[7]; Preemergence, 4 g ai/ha, scale 0 to 100, 0 no effect, 100 complete control",0
same,"Plant response rating, Smartweed","[7]; Preemergence, 8 g ai/ha, scale 0 to 100, 0 no effect, 100 complete control",0
same,"Plant response rating, Smartweed","[7]; Preemergence, 16 g ai/ha, scale 0 to 100 (0 no effect, 100 complete control)",0
same,"Plant response rating, Smartweed","[7]; Preemergence, 31 g ai/ha, scale 0 to 100 (0 no effect, 100 complete control)",0
